From patent publication US9394306B2, “Pyrazoline dione derivatives as NADPH oxidase inhibitors” (GENKYOTEX SA, priority 2009, dated 2016) come the findings set out here.

The structures appear in SMILES notation.

Assay [1] concerns collagen deposition. Kind of assay: Bleomycin-induced lung injury in mice, preventive model (SIRCOL collagen assay). Type of assay: in vivo. The note with it: day 35. As to the method:
(§1) Control animals are subjected to the same protocol but received the same volume of intratracheal saline instead of BLM. Tracheal instillation is carried out under ketamin (80 mg/kg of body weight, i.p.) and xylazine (20 mg/kg de body weight, i.p.) anesthesia.
(§2) […] after endotracheal BLM or saline, the animals are killed by a lethal injection of sodium pentobarbital followed by exsanguination of abdominal aorta. Lungs are weighed and processed separately for biochemical (n=10 lungs per group) and histological studies (n=5 per group) as indicated below. The animals are randomly divided into four groups: control-saline (n=8) and control+BLM (n=15); Compound Dose 1+BLM (n=15) and Compound Dose 2+BLM (N=15). Treatments vehicle or compounds are administered for 5 weeks.
(§3) Mice are treated by daily oral administration of compound according to the invention or saline/control starting on day 0 for five weeks in the preventive model and starting on day 10 up to five weeks for the curative model. Whole lung accumulation of acid-soluble collagen is analyzed by Sircol assay.
The broad lines of the above protocol were followed. […] 35 days after endotracheal BLM or saline, the animals are killed and lungs are processed as indicated above for quantification of collagen deposition and lung inflammation by SIRCOL assay (TebuBio, ref S1000).

The test system of assay [2] is collagen deposition. Kind of assay: Bleomycin-induced lung injury in mice, curative model (SIRCOL collagen assay). Type of assay: in vivo. As to the method: as §1, §2, §3
The broad lines of the above protocol were followed. At day 0, animals received an intratracheal injection of 0.0125 UI of bleomycin (40 μl) to produce pulmonary lesions. Curative treatment group was orally administered a compound of the invention once a day for 3.5 weeks starting from day 10 to day 35. The animals are randomly divided into six groups: control-saline (n=8); 2 groups control+BLM (n=13); Compound 3 of the invention per os 40 mg/kg+BLM (n=13); Compound 3 of the invention per os 10 mg/kg+BLM (n=13) and Pirfenidone (AQCHEM, ref P1002) at 100 mg/kg per os+BLM (n=13). One bleomycin control group was stopped at day 10, the animals were killed and collagen levels were measured. For the other groups, 35 days after endotracheal BLM or saline, the animals are killed and lungs are processed as indicated above for quantification of collagen deposition and lung inflammation as indicated above. […]

For a further assay, the system named is T1, NOX activity.
T1 construct: rows headed: Residual activity of DPI-treated cells (NOX activity, % of control cells); other: Amplex Red, DPI 10 μM, 'usually'
The experiment in a line: Amplex Red measurement of extracellular hydrogen peroxide (NOX activity) in DMSO-differentiated HL60 cells. Format: cell-based, Human. The note with it: DPI 10 μM, 'usually'. As to the method:
Human acute myeloid leukemia cell line HL-60 was cultured in RPMI 1640 (Invitrogen) supplemented with 10% heat-inactivated calf serum, 2 mM glutamine, 100 U/mL penicillin (Sigma), and 100 μg streptomycin (Sigma) at 37° C. under a humidified atmosphere of 5% CO2. HL60 differentiation to the neutrophil phenotype was triggered by adding Me2SO (final concentration 1.25% v/v for 6 days) to the culture medium.
Extracellular hydrogen peroxide was measured using Amplex UltraRed (Molecular Probes). Cells were trypsinized (1× Trypsin-EDTA), collected by centrifugation, and resuspended in HBSS supplemented with 1% glucose. Cells were seeded into black 96-well plates at a density of 50,000 cells in 200 μl testing buffer (HBSS 1% glucose containing 0.005 U/mL horseradish peroxidase (Roche) and 50 μM Amplex Red in the presence or absence of compounds according to the invention. As a control, DPI was included at a final concentration of 10 μM The plates were placed in the fluorescent Optima Fluorescent plate reader and kept at 37° C. during 20 min. Fluorescence was measured for […] with excitation and emission wavelengths of 544 nm and 590 nm respectively. NOX activities were expressed as % of the activity in control cells. Residual activity of DPI-treated cells was usually <10%.

In assay [3] the test system is NOX activities. Kind of assay: Nitroblue tetrazolium (NBT) superoxide test in cells. Type of assay: cell-based. The settings on record: DPI 10 μM, 'usually'. As for the experimental part: Intracellular and extracellular superoxide was measured by a colorimetric technique using a quantitative nitroblue tetrazolium (NBT) test. SOD-inhibitable conversion of NBT to formazan, a fine blue precipitate, in the presence of superoxide anion was measured using Fluostar Optima spectrometer (BMG labtech). Following incubation with appropriate stimuli, cells were trypsinized (1× Trypsin-EDTA), collected by centrifugation, and washed with PBS to remove medium. 5×10^5 cells were plated on 48-well plates and incubated in Hank's balanced salt solution containing 0.5 mg/mL NBT with or without 800 U/mL SOD in the presence or absence of compounds according to the invention. As a control, DPI was included at a final concentration of 10 μM. After 2.5 h, cells were fixed and washed with methanol to remove non reduced NBT. The reduced formazan was then dissolved in 230 μl of 2M potassium hydroxide and in 280 μl of dimethylsulfoxide. The absorption was measured at 630 nm. For calculation, the absorbance at 630 nm was normalized for each individual well. The mean of the four blank values was subtracted from each corrected value for each time point. NOX activities were expressed as % of the activity in control cells. Residual activity of DPI-treated cells was usually <10%.

Assay [4] concerns NOX activities. Kind of assay: Chemiluminescence (luminol) ROS measurement in cells. The settings on record: 'usually'. Format: cell-based. As for the experimental part:
ROS was measured using the chemiluminescent probe luminol. Cells were cultured and plated as for Amplex Red except that the Amplex Red agent was replaced by 10 μg/mL luminol (Sigma 09235). Light emission was recorded continuously at 37° C. for 60 minutes using the luminescence function of the FluoStar Optima fluorescent plate reader. The mean of the four blank values was subtracted from each corrected value for each time point. NOX activities were expressed as % of the activity in control cells. Residual activity of DPI-treated cells was usually <10%.

The subject of assay [5] is NOX activities. Kind of assay: H2DCF-DA ROS measurement in TGF-β stimulated HUVEC. Type of assay: cell-based, Human. The note with it: 'usually'. As to the method: HUVEC are cultured in endothelial basal medium supplemented with hydrocortisone (1 μg/mL, CalbioChem), bovine brain extract (12 μg/mL), gentamicin (50 μg/mL, CalbioChem), amphotericin B (50 ng/mL, CalBioChem EGF (10 ng/mL, and 10% FCS until the fourth passage. When the fifth passage was started, cells were cultured with a lower concentration of FCS (2%) in the absence of EGF, if not indicated otherwise. All experiments were done with cells of the fifth passage. The cells were incubated with O×LDL (oxidized low-density lipoprotein) or its buffer as control for 24 h, before detection of O2^− formation.
HUVEC were plated on coverslips and made quiescent overnight in 0.5% BSA before stimulation with TGF-β. Cells were loaded for 10 minutes with 5 μM CM-H2DCFDA in phenol-red-free medium in the dark and then treated with TGF-β (R&D Systems) in the presence or absence of compounds according to the invention. Cells were then visualized by immunofluorescence microscopy after fixation and staining of the nuclei with DAPI or examined live using confocal microscopy. DCF fluorescence was visualized at an excitation wavelength of 488 nm and emission at 515 to 540 nm. […] For calculation, the absorbance at […] was normalized to absorbance at […] for each individual well. […] NOX activities were expressed as % of the activity in control cells. […]

With `O=c1c2c3n(c(=O)cc2[nH]n1-c1ccccc1Cl)CCCN(Cc1ccccc1)C3` [Compound 3, 10-benzyl-2-(2-chlorophenyl)-2,3,8,9,10,11-hexahydro-1H-pyrazolo[4′,3′:3,4]pyrido[1,2-a][1,4]diazepine-1,5(7H)-dione], the “inhibition of collagen deposition as compared to bleomycin control” value amounted to 46% with collagen deposition [1] (40 mg/kg per os once a day from day 0 for five weeks); 64% in the assay with collagen deposition [2] (10 mg/kg per os once a day from day 10 to day 35, mice); 52% in the assay on collagen deposition [2] (40 mg/kg per os once a day from day 10 to day 35, mice).
For `c1ccc([I+]c2ccccc2)cc1` [DPI, Diphenyl-iodonium], the “Residual activity of DPI-treated cells (NOX activity, % of control cells)” value in the assay on NOX activity, in the assay with NOX activities [3], in the assay with NOX activities [4] and in the assay on NOX activities [5] was under 10% each time.
As to `Cc1ccc(=O)n(-c2ccccc2)c1` [Pirfenidone], the “inhibition of collagen deposition as compared to bleomycin control” value is recorded as 45% in the assay with collagen deposition [1] (100 mg/kg per os once a day from day 0 for five weeks) and 12% in the assay on collagen deposition [2] (100 mg/kg per os once a day from day 10 to day 35, mice).
